Measurements: ChEMBL document CHEMBL1201862, “PubChem BioAssay data set” (2004)
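Dose response: 5 concentrations. Exposure: 48 h. Format: 96-well plates. Endpoint: linear interpolation; highest concentration if not reached. GI50 is the concentration that inhibits growth by half.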 Active and inactive are the calls of the source. No stated cut-off is given here; in the data, active = GI50 up to about 1.1 µM and inactive = higher.

How the values were obtained:
Test in all cases: NCI-60 cell line screen, 48 h
[1] = system: OVCAR-4
[2] = system: SK-MEL-5
[3] = system: OVCAR-3
[4] = system: OVCAR-8
[5] = system: UO-31
[6] = system: HOP-92
[7] = system: SK-OV-3
[8] = system: NCI-H460
[9] = system: T47D
[10] = system: A498
[11] = system: NCI/ADR-RES
[12] = system: Hs-578T
[13] = system: NCI-H522
[14] = system: HOP-62
[15] = system: SNB-19
[16] = system: KM12
[17] = system: SF-539
[18] = system: UACC-62
[19] = system: DU-145
[20] = system: SW-620
[21] = system: 786-0
[22] = system: HT-29
[23] = system: ACHN
[24] = system: SNB-75
[25] = system: SN12C
[26] = system: SR
[27] = system: SF-295
[28] = system: HL-60
[29] = system: PC-3
[30] = system: SK-MEL-2
[31] = system: MDA-MB-231
[32] = system: COLO 205
[33] = system: NCI-H226
[34] = system: HCT-116
[35] = system: UACC-257
[36] = system: HCC 2998
[37] = system: NCI-H23
[38] = system: TK-10
[39] = system: M14
[40] = system: U-251
[41] = system: SK-MEL-28
[42] = system: RXF 393
[43] = system: K562
[44] = system: MDA-N
[45] = system: IGROV-1
[46] = system: CAKI-1
[47] = system: HCT-15
[48] = system: CCRF-CEM
[49] = system: A549
[50] = system: EKVX
[51] = system: RPMI-8226
[52] = system: MOLT-4
[53] = system: MCF7
[54] = system: MDA-MB-435
[55] = system: Malme-3M
[56] = system: SF-268
[57] = system: LOX IMVI
[58] = system: OVCAR-5

CC(=O)CC(O)(C(F)(F)Cl)C(F)(F)Cl
GI50 [1]: > 10 µM (inactive)
GI50 [2]: > 10 µM (inactive)
GI50 [3]: > 10 µM (inactive)
GI50 [4]: > 10 µM (inactive)
GI50 [5]: > 10 µM (inactive)
GI50 [6]: > 10 µM (inactive)
GI50 [7]: > 10 µM (inactive)
GI50 [8]: > 10 µM (inactive)
GI50 [9]: > 10 µM (inactive)
GI50 [10]: > 10 µM (inactive)
GI50 [11]: > 10 µM (inactive)
GI50 [12]: > 10 µM (inactive)
GI50 [13]: > 10 µM (inactive)
GI50 [14]: > 10 µM (inactive)
GI50 [15]: > 10 µM (inactive)
GI50 [16]: > 10 µM (inactive)
GI50 [17]: > 10 µM (inactive)
GI50 [18]: > 10 µM (inactive)
GI50 [19]: > 10 µM (inactive)
GI50 [20]: > 10 µM (inactive)
GI50 [21]: > 10 µM (inactive)
GI50 [22]: > 10 µM (inactive)
GI50 [23]: > 10 µM (inactive)
GI50 [24]: > 10 µM (inactive)
GI50 [25]: > 10 µM (inactive)
GI50 [26]: > 10 µM (inactive)
GI50 [27]: > 10 µM (inactive)
GI50 [28]: > 10 µM (inactive)
GI50 [29]: > 10 µM (inactive)
GI50 [30]: > 10 µM (inactive)
GI50 [31]: > 10 µM (inactive)
GI50 [32]: > 10 µM (inactive)
GI50 [33]: > 10 µM (inactive)
GI50 [34]: > 10 µM (inactive)
GI50 [35]: > 10 µM (inactive)
GI50 [36]: > 10 µM (inactive)
GI50 [37]: > 10 µM (inactive)
GI50 [38]: > 10 µM (inactive)
GI50 [39]: > 10 µM (inactive)
GI50 [40]: > 10 µM (inactive)
GI50 [41]: > 10 µM (inactive)
GI50 [42]: > 10 µM (inactive)
GI50 [43]: > 10 µM (inactive)
GI50 [44]: > 10 µM (inactive)
GI50 [45]: > 10 µM (inactive)
GI50 [46]: > 10 µM (inactive)
GI50 [47]: > 10 µM
GI50 [48]: > 10 µM (inactive)
GI50 [49]: > 10 µM (inactive)
GI50 [50]: > 10 µM (inactive)
GI50 [51]: > 10 µM (inactive)
GI50 [52]: > 10 µM (inactive)
GI50 [53]: > 10 µM (inactive)
GI50 [54]: > 10 µM (inactive)
GI50 [55]: > 10 µM (inactive)
GI50 [56]: > 10 µM (inactive)
GI50 [57]: > 10 µM (inactive)

CC[C@H](CCCCC1CC[C@@H]2CC(=O)C[C@H]12)OC (stereo not given in full)
GI50 [3]: > 100 µM (inactive)
GI50 [5]: 93.8 µM (inactive)
GI50 [10]: > 100 µM (inactive)
GI50 [58]: > 100 µM (inactive)
GI50 [19]: > 100 µM (inactive)
GI50 [20]: > 100 µM (inactive)
GI50 [25]: > 100 µM (inactive)
GI50 [27]: > 100 µM (inactive)
GI50 [29]: > 100 µM (inactive)
GI50 [40]: > 100 µM (inactive)
GI50 [41]: > 100 µM (inactive)
GI50 [42]: > 100 µM (inactive)
GI50 [44]: > 100 µM (inactive)
GI50 [47]: > 100 µM
GI50 [49]: > 100 µM (inactive)
GI50 [50]: > 100 µM (inactive)
GI50 [53]: > 100 µM (inactive)
GI50 [56]: > 100 µM (inactive)

CCCCCCCCCCCCCCCCCCNc1nc(=O)n(C2CC(OP(=O)(O)OCC3OC(n4cc(F)c(=O)[nH]c4=O)CC3O)C(CO)O2)cc1F (stereo not given)
GI50 [1]: > 100 µM (inactive)
GI50 [2]: 34.7 µM (inactive)
GI50 [3]: 29 µM (inactive)
GI50 [4]: 17.5 µM (inactive)
GI50 [5]: 13.5 µM (inactive)
GI50 [6]: 5.33 µM (inactive)
GI50 [7]: 31.7 µM (inactive)
GI50 [9]: 31.2 µM (inactive)
GI50 [10]: 13 µM (inactive)
GI50 [11]: 30.3 µM (inactive)
GI50 [12]: 35.2 µM (inactive)
GI50 [13]: 30.3 µM (inactive)
GI50 [14]: 15.2 µM (inactive)
GI50 [15]: 12.1 µM (inactive)
GI50 [16]: 11.2 µM (inactive)
GI50 [17]: 6.67 µM (inactive)
GI50 [18]: 20.5 µM (inactive)
GI50 [58]: 54.2 µM (inactive)
GI50 [19]: 62.2 µM (inactive)
GI50 [20]: 18.8 µM (inactive)
GI50 [21]: 49.4 µM (inactive)
GI50 [22]: 16.6 µM (inactive)
GI50 [23]: 11.2 µM (inactive)
GI50 [24]: 36.9 µM (inactive)
GI50 [25]: > 100 µM (inactive)
GI50 [26]: 4.86 µM (inactive)
GI50 [27]: 13.5 µM (inactive)
GI50 [28]: 5.18 µM (inactive)
GI50 [29]: 22.6 µM (inactive)
GI50 [30]: 27.5 µM (inactive)
GI50 [31]: > 100 µM (inactive)
GI50 [32]: 20.7 µM (inactive)
GI50 [33]: 98.4 µM (inactive)
GI50 [34]: 47.1 µM (inactive)
GI50 [35]: 61 µM (inactive)
GI50 [36]: 5.97 µM (inactive)
GI50 [37]: 38.8 µM (inactive)
GI50 [38]: 70.5 µM (inactive)
GI50 [39]: 19.5 µM (inactive)
GI50 [40]: 17.5 µM (inactive)
GI50 [41]: 27.1 µM (inactive)
GI50 [42]: 11.4 µM (inactive)
GI50 [43]: 26.9 µM (inactive)
GI50 [45]: 46.3 µM (inactive)
GI50 [46]: 26.2 µM (inactive)
GI50 [47]: 37.5 µM
GI50 [48]: 12.9 µM (inactive)
GI50 [49]: 7.24 µM (inactive)
GI50 [50]: > 100 µM (inactive)
GI50 [51]: 11.2 µM (inactive)
GI50 [52]: 14.7 µM (inactive)
GI50 [53]: 9.86 µM (inactive)
GI50 [54]: 75.2 µM (inactive)
GI50 [56]: 12.4 µM (inactive)
GI50 [57]: 26.1 µM (inactive)
